# Tests used:
# Assay in all cases: KINOMEscan competition binding
# Conditions in all cases: compound 0.5 µM
# CDC42BPB (human) = CDC42BPB (human) (UniProt Q9Y5S2)
# MTOR (human) = MTOR (human) (UniProt P42345)
# EPHB2 (human) = EPHB2 (human) (UniProt P29323)
# PRKCI (human) = PRKCI (human) (UniProt P41743)
# BRSK1 (human) = BRSK1 (human) (UniProt Q8TDC3)
# FYN (human) = FYN (human) (UniProt P06241)
# RPS6KA5 KD2 (human) = RPS6KA5 KD2 (human) (UniProt O75582)
# STK17B (human) = STK17B (human) (UniProt O94768)
# HUNK (human) = HUNK (human) (UniProt P57058)
# STK36 (human) = STK36 (human) (UniProt Q9NRP7)
# MAP3K3 (human) = MAP3K3 (human) (UniProt Q99759)
# BMP2K (human) = BMP2K (human) (UniProt Q9NSY1)
# EPHA5 (human) = EPHA5 (human) (UniProt P54756)
# [1] = system: ABL1 (human), P00519 [E255K]
# NEK11 (human) = NEK11 (human) (UniProt Q8NG66)
# RPS6KA2 KD1 (human) = RPS6KA2 KD1 (human) (UniProt Q15349)
# FRK (human) = FRK (human) (UniProt P42685)
# RPS6KA5 KD1 (human) = RPS6KA5 KD1 (human) (UniProt O75582)
# PRKAA1 (human) = PRKAA1 (human) (UniProt Q13131)
# [2] = system: PIK3CA (human), P42336 [E542K]
# PRKD1 (human) = PRKD1 (human) (UniProt Q15139)
# TAOK1 (human) = TAOK1 (human) (UniProt Q7L7X3)
# [3] = molecular target: JAK3 JH1 catalytic (human) (UniProt P52333)
# OXSR1 (human) = OXSR1 (human) (UniProt O95747)
# CSNK1G1 (human) = CSNK1G1 (human) (UniProt Q9HCP0)
# MLTK (human) = MLTK (human) (UniProt Q9NYL2)
# RPS6KA3 KD1 (human) = RPS6KA3 KD1 (human) (UniProt P51812)
# EPHB6 (human) = EPHB6 (human) (UniProt O15197)
# DAPK1 (human) = DAPK1 (human) (UniProt P53355)
# MYLK2 (human) = MYLK2 (human) (UniProt Q9H1R3)
# HIPK4 (human) = HIPK4 (human) (UniProt Q8NE63)
# PIK3C2B (human) = PIK3C2B (human) (UniProt O00750)
# AURKA (human) = AURKA (human) (UniProt O14965)
# MAPK7 (human) = MAPK7 (human) (UniProt Q13164)
# LTK (human) = LTK (human) (UniProt P29376)
# [4] = system: KIT (human), P10721 [D816V]
# [5] = system: KIT (human), P10721 [D816H]
# ULK1 (human) = ULK1 (human) (UniProt O75385)
# ULK1 (human), sequence (O75385 whole entry, looked up): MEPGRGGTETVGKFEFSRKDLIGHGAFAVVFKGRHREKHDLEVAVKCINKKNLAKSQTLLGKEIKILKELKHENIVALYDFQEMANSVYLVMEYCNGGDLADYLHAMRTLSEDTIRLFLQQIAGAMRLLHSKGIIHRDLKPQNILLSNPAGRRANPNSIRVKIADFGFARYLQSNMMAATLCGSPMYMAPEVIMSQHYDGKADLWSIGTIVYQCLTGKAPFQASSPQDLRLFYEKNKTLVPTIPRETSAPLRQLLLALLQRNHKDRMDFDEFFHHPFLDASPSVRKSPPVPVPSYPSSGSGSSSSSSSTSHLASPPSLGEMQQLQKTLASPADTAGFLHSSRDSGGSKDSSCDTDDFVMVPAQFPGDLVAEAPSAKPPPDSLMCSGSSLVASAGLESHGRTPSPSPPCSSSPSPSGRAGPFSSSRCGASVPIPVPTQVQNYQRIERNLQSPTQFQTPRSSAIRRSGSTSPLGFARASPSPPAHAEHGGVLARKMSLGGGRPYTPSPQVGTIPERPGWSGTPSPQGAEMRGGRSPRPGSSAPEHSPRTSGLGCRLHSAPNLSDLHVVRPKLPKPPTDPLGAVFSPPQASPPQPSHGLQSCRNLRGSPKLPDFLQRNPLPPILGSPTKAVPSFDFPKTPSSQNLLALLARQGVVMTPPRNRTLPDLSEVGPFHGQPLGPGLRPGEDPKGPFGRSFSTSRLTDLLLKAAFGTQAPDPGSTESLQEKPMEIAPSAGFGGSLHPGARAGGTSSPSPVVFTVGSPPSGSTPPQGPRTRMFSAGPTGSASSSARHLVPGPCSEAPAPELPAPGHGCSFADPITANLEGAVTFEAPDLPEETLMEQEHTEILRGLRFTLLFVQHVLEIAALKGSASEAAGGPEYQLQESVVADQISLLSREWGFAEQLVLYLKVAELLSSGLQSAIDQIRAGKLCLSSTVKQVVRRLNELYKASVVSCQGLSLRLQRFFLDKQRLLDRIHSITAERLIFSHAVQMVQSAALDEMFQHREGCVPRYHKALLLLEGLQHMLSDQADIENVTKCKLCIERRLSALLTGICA
# PRKD1 (human), sequence (Q15139 whole entry, looked up): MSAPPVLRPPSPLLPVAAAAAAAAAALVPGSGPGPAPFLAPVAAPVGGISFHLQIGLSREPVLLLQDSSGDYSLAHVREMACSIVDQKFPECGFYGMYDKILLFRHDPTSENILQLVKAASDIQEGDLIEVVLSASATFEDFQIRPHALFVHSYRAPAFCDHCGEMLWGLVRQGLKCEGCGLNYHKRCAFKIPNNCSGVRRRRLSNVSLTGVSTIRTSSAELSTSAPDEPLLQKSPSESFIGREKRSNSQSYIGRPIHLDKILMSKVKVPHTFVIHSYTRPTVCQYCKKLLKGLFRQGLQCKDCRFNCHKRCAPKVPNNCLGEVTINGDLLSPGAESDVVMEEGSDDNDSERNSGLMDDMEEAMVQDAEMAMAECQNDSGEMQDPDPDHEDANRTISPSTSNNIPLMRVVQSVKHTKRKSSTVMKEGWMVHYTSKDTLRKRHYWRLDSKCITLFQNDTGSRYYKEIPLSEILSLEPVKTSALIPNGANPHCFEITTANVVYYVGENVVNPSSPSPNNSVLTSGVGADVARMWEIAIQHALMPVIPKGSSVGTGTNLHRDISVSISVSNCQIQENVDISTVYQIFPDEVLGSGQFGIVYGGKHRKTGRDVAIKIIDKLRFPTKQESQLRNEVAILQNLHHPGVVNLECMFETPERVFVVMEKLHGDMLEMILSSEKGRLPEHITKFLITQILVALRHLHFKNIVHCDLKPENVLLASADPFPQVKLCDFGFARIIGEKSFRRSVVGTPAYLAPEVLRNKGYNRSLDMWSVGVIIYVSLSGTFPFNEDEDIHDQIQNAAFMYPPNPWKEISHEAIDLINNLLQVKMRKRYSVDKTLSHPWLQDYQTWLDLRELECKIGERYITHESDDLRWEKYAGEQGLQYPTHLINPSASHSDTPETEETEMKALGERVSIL
# PRKCI (human), sequence (P41743 whole entry, looked up): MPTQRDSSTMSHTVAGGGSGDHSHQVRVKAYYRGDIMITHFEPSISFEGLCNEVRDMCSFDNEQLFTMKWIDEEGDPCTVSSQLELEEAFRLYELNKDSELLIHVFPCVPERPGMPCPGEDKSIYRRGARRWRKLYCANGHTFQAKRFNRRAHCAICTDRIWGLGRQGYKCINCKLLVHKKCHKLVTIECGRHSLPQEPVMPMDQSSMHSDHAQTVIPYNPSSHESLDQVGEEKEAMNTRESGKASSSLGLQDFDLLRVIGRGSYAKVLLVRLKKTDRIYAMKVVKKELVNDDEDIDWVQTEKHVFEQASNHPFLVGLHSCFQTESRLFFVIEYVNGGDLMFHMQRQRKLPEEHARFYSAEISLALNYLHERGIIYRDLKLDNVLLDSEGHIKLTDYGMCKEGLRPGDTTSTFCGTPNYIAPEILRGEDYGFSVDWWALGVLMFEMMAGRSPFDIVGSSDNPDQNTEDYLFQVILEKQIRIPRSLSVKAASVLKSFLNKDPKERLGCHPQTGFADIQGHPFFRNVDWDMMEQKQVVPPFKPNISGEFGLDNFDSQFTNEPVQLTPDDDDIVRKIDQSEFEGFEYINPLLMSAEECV
# TAOK1 (human), sequence (Q7L7X3 whole entry, looked up): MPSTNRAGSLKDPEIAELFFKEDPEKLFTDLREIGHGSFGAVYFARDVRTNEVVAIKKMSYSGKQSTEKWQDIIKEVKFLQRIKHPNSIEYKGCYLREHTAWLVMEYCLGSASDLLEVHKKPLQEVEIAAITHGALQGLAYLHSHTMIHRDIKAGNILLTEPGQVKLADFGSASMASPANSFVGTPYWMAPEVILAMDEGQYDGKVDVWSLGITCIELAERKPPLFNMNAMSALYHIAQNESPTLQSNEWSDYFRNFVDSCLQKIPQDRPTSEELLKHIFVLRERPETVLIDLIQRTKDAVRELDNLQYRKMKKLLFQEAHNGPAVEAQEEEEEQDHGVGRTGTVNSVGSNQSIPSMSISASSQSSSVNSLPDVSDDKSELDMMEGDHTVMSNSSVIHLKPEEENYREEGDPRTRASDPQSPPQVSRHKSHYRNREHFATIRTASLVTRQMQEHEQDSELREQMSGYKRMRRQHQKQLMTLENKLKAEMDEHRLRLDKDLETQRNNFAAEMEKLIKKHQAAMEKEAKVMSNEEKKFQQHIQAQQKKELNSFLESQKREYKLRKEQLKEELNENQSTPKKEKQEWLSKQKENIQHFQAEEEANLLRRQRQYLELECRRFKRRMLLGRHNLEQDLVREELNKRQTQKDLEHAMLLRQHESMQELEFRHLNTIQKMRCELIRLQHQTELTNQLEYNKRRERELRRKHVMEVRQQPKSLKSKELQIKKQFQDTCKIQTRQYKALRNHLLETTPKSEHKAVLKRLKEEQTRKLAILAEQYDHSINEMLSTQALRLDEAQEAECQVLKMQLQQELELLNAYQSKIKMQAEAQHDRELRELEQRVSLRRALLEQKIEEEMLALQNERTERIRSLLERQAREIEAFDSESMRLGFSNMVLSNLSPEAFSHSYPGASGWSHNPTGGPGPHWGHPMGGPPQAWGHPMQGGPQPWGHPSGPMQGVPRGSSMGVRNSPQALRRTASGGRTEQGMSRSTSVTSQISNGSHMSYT
# KIT (human), P10721 [D816V], sequence (P10721 whole entry D816V, looked up): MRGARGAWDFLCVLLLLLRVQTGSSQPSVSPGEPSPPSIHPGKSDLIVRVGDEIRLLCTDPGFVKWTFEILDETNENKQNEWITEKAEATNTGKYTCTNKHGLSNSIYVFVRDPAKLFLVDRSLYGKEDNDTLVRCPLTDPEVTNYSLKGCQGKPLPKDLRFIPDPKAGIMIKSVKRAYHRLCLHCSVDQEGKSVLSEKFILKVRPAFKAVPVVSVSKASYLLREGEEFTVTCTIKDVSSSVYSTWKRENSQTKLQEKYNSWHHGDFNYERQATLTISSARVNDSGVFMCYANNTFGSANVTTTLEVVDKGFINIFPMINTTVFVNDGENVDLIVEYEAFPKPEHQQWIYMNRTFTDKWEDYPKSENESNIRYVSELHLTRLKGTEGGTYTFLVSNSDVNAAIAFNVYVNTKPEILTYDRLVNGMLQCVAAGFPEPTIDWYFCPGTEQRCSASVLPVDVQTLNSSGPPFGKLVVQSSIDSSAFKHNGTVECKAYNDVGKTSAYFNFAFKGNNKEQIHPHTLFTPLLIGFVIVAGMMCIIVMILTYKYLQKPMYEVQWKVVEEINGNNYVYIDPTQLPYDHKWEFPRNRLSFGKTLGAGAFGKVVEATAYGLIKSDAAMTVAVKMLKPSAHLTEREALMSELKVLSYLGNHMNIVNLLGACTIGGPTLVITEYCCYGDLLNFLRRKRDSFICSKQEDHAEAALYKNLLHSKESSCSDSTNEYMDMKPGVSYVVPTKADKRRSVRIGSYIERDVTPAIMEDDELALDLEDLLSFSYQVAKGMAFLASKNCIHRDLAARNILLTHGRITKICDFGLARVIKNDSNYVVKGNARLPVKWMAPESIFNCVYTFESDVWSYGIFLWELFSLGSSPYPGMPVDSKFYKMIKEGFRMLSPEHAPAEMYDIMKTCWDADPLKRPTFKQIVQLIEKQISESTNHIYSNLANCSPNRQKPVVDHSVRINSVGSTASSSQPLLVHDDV
# KIT (human), P10721 [D816H], sequence (P10721 whole entry D816H, looked up): as the sequence (P10721 whole entry D816V, looked up) above, with V816H counted along it
# STK17B (human), sequence (O94768 whole entry, looked up): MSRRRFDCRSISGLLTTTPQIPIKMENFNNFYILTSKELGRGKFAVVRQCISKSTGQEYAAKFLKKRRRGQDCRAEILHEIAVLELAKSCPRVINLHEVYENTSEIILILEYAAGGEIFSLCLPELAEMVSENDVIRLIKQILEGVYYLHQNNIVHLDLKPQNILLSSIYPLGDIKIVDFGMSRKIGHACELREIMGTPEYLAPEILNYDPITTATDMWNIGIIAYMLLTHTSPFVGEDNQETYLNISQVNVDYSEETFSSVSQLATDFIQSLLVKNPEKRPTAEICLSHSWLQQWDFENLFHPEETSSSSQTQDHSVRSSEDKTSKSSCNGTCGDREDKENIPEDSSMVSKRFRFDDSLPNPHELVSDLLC
smiles,measurement,setting,value
Cn1c2ccccc2c2c3c(c4c5ccccc5n(CCC#N)c4c21)CNC3=O,"kinase still bound, per cent of control",CDC42BPB (human),100%
same,"kinase still bound, per cent of control",MTOR (human),52%
same,"kinase still bound, per cent of control",EPHB2 (human),100%
same,"kinase still bound, per cent of control",PRKCI (human),86%
same,"kinase still bound, per cent of control",BRSK1 (human),51%
same,"kinase still bound, per cent of control",FYN (human),92%
same,"kinase still bound, per cent of control",RPS6KA5 KD2 (human),71%
same,"kinase still bound, per cent of control",STK17B (human),100%
same,"kinase still bound, per cent of control",HUNK (human),87%
same,"kinase still bound, per cent of control",STK36 (human),100%
same,"kinase still bound, per cent of control",MAP3K3 (human),2.1%
same,"kinase still bound, per cent of control",BMP2K (human),3.4%
same,"kinase still bound, per cent of control",EPHA5 (human),96%
same,"kinase still bound, per cent of control",[1],75%
same,"kinase still bound, per cent of control",NEK11 (human),100%
same,"kinase still bound, per cent of control",RPS6KA2 KD1 (human),5.4%
same,"kinase still bound, per cent of control",FRK (human),84%
same,"kinase still bound, per cent of control",RPS6KA5 KD1 (human),52%
same,"kinase still bound, per cent of control",PRKAA1 (human),59%
same,"kinase still bound, per cent of control",[2],100%
same,"kinase still bound, per cent of control",PRKD1 (human),24%
same,"kinase still bound, per cent of control",TAOK1 (human),8%
same,"kinase still bound, per cent of control",[3],0%
same,"kinase still bound, per cent of control",OXSR1 (human),100%
same,"kinase still bound, per cent of control",CSNK1G1 (human),100%
same,"kinase still bound, per cent of control",MLTK (human),96%
same,"kinase still bound, per cent of control",RPS6KA3 KD1 (human),25%
same,"kinase still bound, per cent of control",EPHB6 (human),50%
same,"kinase still bound, per cent of control",DAPK1 (human),78%
same,"kinase still bound, per cent of control",MYLK2 (human),58%
same,"kinase still bound, per cent of control",HIPK4 (human),8%
same,"kinase still bound, per cent of control",PIK3C2B (human),100%
same,"kinase still bound, per cent of control",AURKA (human),74%
same,"kinase still bound, per cent of control",MAPK7 (human),0.1%
same,"kinase still bound, per cent of control",LTK (human),4.2%
same,"kinase still bound, per cent of control",[4],2%
same,"kinase still bound, per cent of control",[5],30%
same,"kinase still bound, per cent of control",ULK1 (human),92%
